Laboratory results reported in patent publication US6541503B2, “Substituted oxindole derivatives as protein tyrosine kinase and as protein serine/threonine kinase inhibitors” (SmithKline Beecham Corporation, priority 1997, dated 2003).
Where two headings read alike, the source gives them in different places.

Columns and labels:
[1] = target: CDK1 (Homo sapiens, UniProt P06493); assay: Cyclin dependent protein kinase substrate phosphorylation assay, CDK1; format: biochemical; settings: read-out: CDK1 IC50
Sequence of CDK1 (P06493 whole entry, species assumed): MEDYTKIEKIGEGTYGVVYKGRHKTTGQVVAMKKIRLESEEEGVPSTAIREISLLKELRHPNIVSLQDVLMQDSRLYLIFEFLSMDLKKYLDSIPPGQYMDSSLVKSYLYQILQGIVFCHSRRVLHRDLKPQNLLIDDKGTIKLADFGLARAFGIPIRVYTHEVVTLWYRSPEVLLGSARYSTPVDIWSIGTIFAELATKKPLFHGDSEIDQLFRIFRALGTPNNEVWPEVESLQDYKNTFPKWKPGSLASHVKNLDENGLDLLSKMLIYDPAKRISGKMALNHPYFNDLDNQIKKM
Sequence of CDK1 (P14635 whole entry partner, species assumed): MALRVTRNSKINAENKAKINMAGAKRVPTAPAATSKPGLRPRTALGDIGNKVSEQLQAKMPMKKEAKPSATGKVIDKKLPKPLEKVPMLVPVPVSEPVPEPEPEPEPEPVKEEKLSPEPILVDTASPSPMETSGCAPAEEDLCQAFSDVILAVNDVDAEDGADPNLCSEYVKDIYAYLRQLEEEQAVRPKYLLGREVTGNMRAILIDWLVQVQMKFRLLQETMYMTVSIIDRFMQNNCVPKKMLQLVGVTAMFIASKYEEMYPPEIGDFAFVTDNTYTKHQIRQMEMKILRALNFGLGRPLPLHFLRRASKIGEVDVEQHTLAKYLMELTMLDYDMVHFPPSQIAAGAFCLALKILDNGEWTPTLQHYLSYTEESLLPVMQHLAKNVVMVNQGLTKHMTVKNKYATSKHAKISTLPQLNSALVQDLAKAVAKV
Description: Cyclin dependent protein kinase assays utilized the peptides Biotin-aminohexyl-[…] and Biotin-aminohexyl-[…]-NH2 as phosphoryl group acceptors. CDK1 and CDK2 were both expressed utilizing a baculovirus expression system and were partially purified to comprise 20-80% of total protein, with no detectable competing reactions present. Typically, assays were performed by incubating either enzyme (0.2-10 nM), with and without inhibitor, one of the two peptide substrates ([…]), [γ-^32P]ATP ([…]), and 10-20 mM Mg^2+ for periods of time generally within the range 10-120 min. Reactions were terminated with 0.2-2 volumes of either 20% acetic acid or 50-100 mM EDTA buffered to pH 7 (substrate consumption<20%). The buffer employed in enzyme assays was either 30 mM HEPES 7.4 containing 0.15 M NaCl and 5% DMSO, the buffer 50 mM MOPS 7.0 containing 0.15 M NaCl and 5% DMSO, or the buffer 100 mM HEPES pH 7.5 containing 0.1 mg /mL BSA and 5% DMSO. Inhibitors were diluted in 100% DMSO prior to addition into the assay. Detection of peptide phosphorylation was accomplished by scintillation counting following either collection of peptide onto phosphocellulose filters (for reactions stopped with acetic acid), collection of peptide in wells of 96 well plates coated with Streptavidin (Pierce) (reactions were stopped with EDTA), or addition of Avidin coated Scintillant impregnated beads (Scintillation Proximity Assays from Amersham, reactions were stopped with EDTA).

[2] = target: CDK2 (Homo sapiens, UniProt P24941); assay: Cyclin dependent protein kinase substrate phosphorylation assay, CDK2; format: biochemical
[3] = system: RKO colon adenocarcinoma cells; assay: MTT assay, RKO; format: cell-based, human; settings: 72 h, read-out: MTT RKO IC50
Description: (§1) Compounds are tested for their ability to inhibit cell proliferation and cell viability. The metabolic conversion of 3-(4,5-dimethylthiazol-2-yl)-2,5-diphenyltetrazolium bromide (MTT, Sigma #M2128) to a reduced form is a commonly used measure of cellular viability. Following is the procedure:
(§2) Cells are maintained in 75 cm^2 tissue culture flasks until ready for use. The cells are grown and plated for the assay in Dulbecco's modified Eagle's media (DMEM) containing 10% fetal bovine serum. For example, the following cell lines can be used: a) human foreskin fibroblasts (HFF); b) HT29 (human colon carcinoma cell line); c)MDA-MB-468 (human breast carcinoma cell line); d) RKO (human colon adenocarcinoma cell line); e) SW620 (human colon carcinoma cell line); f) A549 (human lung carcinoma cell line); and g) MIA PACA (human pancreatic carcinoma cell line). Cells are maintained at 37° C. in 10% CO2, 90% humidified air. Cells are plated in 96-well tissue culture plates at the densities listed below. 100 μL of cell suspension is added to each well of the 96-well plate except the top row of the plate which contains no cells and serves as a reference for the spectrophotometer.
(§3) Cells are incubated overnight in DMEM containing 10% fetal bovine serum at 37° C. in 10% CO2, 90% humidified air prior to dosing. […] Compounds with solubilities of less than 30 μM are dosed at the highest soluble concentration. Stock solutions of compounds are made in 100% dimethyl sulfoxide (DMSO). Stock solutions are diluted in DMEM containing 100 μg/ml gentamicin and 0.3 to 0.6% DMSO at the twice the highest concentration to be placed on the cells. If compounds have been dissolved in DMSO the final concentration of DMSO on the cells is kept below 0.3%. Three-fold serial dilutions are performed on each compound to prepare 10 concentrations of the compound for dosing. 100 μl of diluted compound is added to the 100 μl of media currently on the dish. For each concentration of compound, 2-4 replicate wells are prepared.
(§4) Cells are returned to incubator and allowed to proliferate in the presence of compound for 72 h before addition of MTT. MTT is prepared in phosphate buffered saline (Irvine Scientific #9240) at a concentration of 2 mg/ml. 50 μl per well of MTT solution is added to the 200 μl of media to yield a final concentration of 0.4 mg/ml and plates are returned to the incubator for 4 h. After 4 h incubation the media, compound and MTT mixture is aspirated from the plates and 100 μl of 100% DMSO is added to each well in addition to 25 μl of Sorenson's Buffer (0.1M glycine, 0.1M NaCl, pH 10.5). Quantitation of metabolic reduction of MTT in each plate is performed by reading optical density at 570 nm wavelength on a Molecular Devices UVmax microplate reader. Growth inhibition curves and 50% inhibitory concentrations are determined using Microsoft Excel.
(§5) HDF are normal diploid fibroblast cells. RKO are colon adenocarcinoma cells and MES/SA are […].

[4] = system: MDA MB468; assay: MTT assay, MDA MB468; format: cell-based, human; settings: read-out: MTT MDA MB468 IC50
Description: as §1, §2, §3, §4

[5] = system: human diploid fibroblasts (HDF-3); assay: G1-S progression assay (BrdU incorporation); format: cell-based; settings: read-out: G1/S Chkpt IC50
Description: This assay is designed to determine the ability of compounds to inhibit progression of cells from G1 into S-phase. […] The protocol is as follows:
(1) Grow human diploid fibroblasts (HDF-3) in 100 mm tissue culture dish to confluency. (2) Plate 6-7×10^3 cells/well in a 96 well plate in 100 μl of DMEM. (3) After 16-17 h add various dilutions of test compounds (0.045-100 μM). Dilute compound in DMEM containing DMSO and add 100 μl to each well so that the DMSO conc. is 0.6-0.8% in 200 μl final volume. (4) Two h after addition of compound, add 20 ul of 100 μM BrdU (final conc. 10 μM) Make 100 μM solution in DMEM from 10 mM stock solution. (5) After 4 h, add 200 μl PBS to each well and remove the contents of the wells by inverting the plate and soaking on to the paper towel. Repeat the washing step three times, with 400 ul PBS each time. (6) Fix the cells and denature the DNA by adding 200 μl fixation/denaturation solution to each well for 30-40 min. (7) Remove the fixation/denaturation solution by tapping the plate on the paper towel and add 75 ul of anti BrdU peroxidase antibody to each well. (dilute the antibody to 0.1 U/mL from 15 U/mL stock in PBS containing 1% BSA, Fraction V). Incubate the plate O/N at 4° C. (8) Remove the antibody solution and wash wells four times with 400 μl of PBS. Let the wash solution stay for 3-4 min during each wash. (9) Drain the wells and add 100 μl of chemiluminiscence Elisa reagent (Prepare the reagent 15-20 min before use to bring it to rt by mixing 100 parts of reagent A with 1 part of reagent B). (10) Read the plate in a luminometer. Take 2-3 readings within 6-7 min. Perform the following controls:
Deoxybromouridine (BrdU), anti BrdU peroxidase antibodies, fixation/denaturation solution, chemiluminiscence reagent and BSA Fraction V, were obtained from Boehringer Mannheim. The 96-well white plate with clear bottom were purchased from Corning Costar Corporation. Dulbecco's Modified Eagle Medium containing high glucose, L-glutamine and pyridoxine HCl was obtained from GIBCO BRL.

[6] = system: HDF normal diploid fibroblast cells; assay: FACS assay (cell death by flow cytometry), HDF; format: cell-based, human; settings: 50% cell death, 72 h; read-out: FACS HDF IC50
Description: (§6) These assays allow determination of both cell death and changes in cell cycle profile in cells following treatment of the compound. The assay is performend as follows:
(§7) 1. Cells are incubated in DMEM to which 10% FCS has been added in a humidified incubator at 37° C. and 5% by volume of CO2 in air. The cells are innoculated in 6-well plates at a density of 0.5-5×10^5 cells per well.
(§8) 2. The test compound is added in serial dilutions 24-36 h after plating in 0.5% DMSO. The plates are then incubated a further 72 h in the presence of the compound. During this time, cells in control cultures undergo at least three cell divisions.
(§9) 3. After incubation, the media is collected and cells are harvested by trypsinization. The cells and media are pooled and pelleted by centrifugation.
(§10) 4. The cell pellet is fixed in a final volume of 3 mL of 50% ice cold MeOH and incubated for a minimum of 30 min at −20° C.
(§11) 5. The cells are pelleted by centrifugation and resuspended in 0.5 mL PBS containing 1%FCS, […] Propidium Iodide (PI) and 5 mg/mL RNase A and incubated 30 min at 37° C. in the dark.
(§12) 6. The samples are analysed by flow cytometry using the relative incorporation of PI as a measure of DNA content of each cell. The % Dead cells is recorded as % of events with less than 2N DNA.
as §5

[7] = system: RKO colon adenocarcinoma cells; assay: FACS assay (cell death by flow cytometry), RKO; format: cell-based, human; settings: 50% cell death, 72 h, read-out: FACS RKO IC50
Description: as §6, §7, §8, §9, §10, §11, §12, §5

[8] = system: MES/SA ovarian carcinoma cells; assay: FACS assay (cell death by flow cytometry), MES/SA; format: cell-based; settings: 50% cell death, 72 h, read-out: FACS MES/SA IC50
Description: as §6, §7, §8, §9, §10, §11, §12, §5

[9] = system: HDF normal diploid fibroblast cells; assay: MTT assay, HDF; format: cell-based, human; settings: 72 h; read-out: MTT HDF IC50
Description: as §1
as §2, with “100 μL of cell suspension is added to each well of the 96-well plate except the top row of the plate which contains no cells and serves as a reference for the spectrophotometer.” left out
Cells are returned to incubator and allowed to proliferate in the presence of compound for 72 h before addition of MTT. […] Quantitation of metabolic reduction of MTT in each plate is performed by reading optical density at 570 nm wavelength on a Molecular Devices UVmax microplate reader. Growth inhibition curves and 50% inhibitory concentrations are determined using Microsoft Excel. […]

| Structure (SMILES) | IC50 [1] | IC50 [2] | IC50 ([3]; Homo sapiens) | IC50 ([4]; Homo sapiens, MDA-MB-468, 72 h) | IC50 ([7]; Homo sapiens) | also measured |
| --- | --- | --- | --- | --- | --- | --- |
| NS(=O)(=O)c1ccc(NN=C2C(=O)Nc3ccc(-c4cnco4)cc32)cc1 [Example 36, 4-[1-(5-Oxazol-5-yl-2-oxo-1,2-dihydro-indol-3-ylidene)-hydrazino]-benzenesulfonamide] |  |  |  |  |  | IC50 [5]: 600 to 1000 nM; IC50 [6]: > 5000 nM; IC50 [7]: 600 to 1000 nM; IC50 [8]: 100 to 500 nM; IC50 [9]: 1100 to 5000 nM; IC50 [3]: 600 to 1000 nM; IC50 ([4]; 72 h): 600 to 1000 nM |
| CN(C)S(=O)(=O)c1ccc(NC=C2C(=O)Nc3ccc(-c4cnco4)cc32)cc1 [Example 35, N,N-Dimethyl-4-[(5-oxazol-5-yl-2-oxo-1,2-dihydro-indol-3-ylidenemethyl)-amino]-benzenesulfonamide] | 11 to 50 nM | 1 to 10 nM | 1100 to 5000 nM | > 5000 nM | 1100 to 5000 nM | IC50 ([8]; Homo sapiens, MES-SA): > 5000 nM |
| CCC(C)Cc1cccc2c1C(=NNc1ccc(S(N)(=O)=O)cc1)C(=O)N2 (centres unmarked) [Example 11, 4-{N′-[4-(2-methylbutyl)-2-oxo-1,2-dihydro-indol-3-ylidene]-hydrazino}-benzenesulfonamide] | 11 to 50 nM | 1 to 10 nM |  |  | 1100 to 5000 nM | IC50 ([5]; Homo sapiens, Fibroblast): 1100 to 5000 nM |

Further lines, with some results ahead:

| IC50 [1] | Structure (SMILES) | IC50 [2] | IC50 ([3]; Homo sapiens) | IC50 ([4]; Homo sapiens, MDA-MB-468, 72 h) | IC50 ([7]; Homo sapiens) | also measured |
| --- | --- | --- | --- | --- | --- | --- |
| 11 to 50 nM | COC(=O)c1ccc2c(c1)/C(=C/Nc1ccc(S(N)(=O)=O)cc1)C(=O)N2 [Example 27, 2-Oxo-3-(4-sulfamoyl-phenylamino-methylene)-2,3-dihydro-1H-indole-5-carboxylic acid methyl ester] |  |  |  |  |  |
| 11 to 50 nM | CC(C)COC(=O)c1ccc2c(c1)C(=CNc1ccc(S(N)(=O)=O)cc1)C(=O)N2 [Example 103, 2-Oxo-3-(4-sulfamoyl-phenylamino-methylene)-2,3dihydro-1H-indole-5-carboxylic acid isobutyl ester] | 1 to 10 nM | 1100 to 5000 nM | 1100 to 5000 nM |  |  |
| 51 to 100 nM | O=C1Nc2ccc3ncsc3c2C1=CNc1ccc2nn[nH]c2c1 [Example 101, 8-(3H-Benzotriazol-5-ylaminomethylene)-6,8-dihydro-1-thia-3,6-diaza-as-indacene-7-one] | 11 to 50 nM |  | 1100 to 5000 nM | > 5000 nM |  |
